# Source: ChEMBL document CHEMBL4765253, “Discovery, synthesis, and optimization of an N-alkoxy indolylacetamide against HIV-1 carrying NNRTI-resistant mutations from the Isatis indigotica root” (Eur J Med Chem, 2020)
# What was measured:
# [1] = test system: Human immunodeficiency virus 1; test: (§1) Antiviral activity against VSVG/wild-type HIV-1 infected in human HEK 293T cells assessed as inhibition of virus replication preincubated with cells for 15 mins prior to viral infection and measured at 48 hrs post-infection by luciferase reporter gene assay; assay type: functional, organism-based, HEK293T; conditions: Human immunodeficiency virus 1, HEK-293T
# [2] = test system: HEK-293T; test: Cytotoxicity against human HEK 293T cells assessed as reduction in cell viability measured after 48 hrs by Celltiter-glo assay; assay type: cell-based
# [3] = Inhibition of HIV-1 reverse transcriptase RNA-dependent DNA polymerase activity assessed as reduction in dTTP incorporation using poly(rA)/oligo(dT) as template/primer incubated for 1 hr followed by transferring into streptavidin plate for 1 hr by absorbance based analysis; set-up: species or system Human immunodeficiency virus 1
# [4] = Inhibition of RNase H activity of HIV-1 reverse transcriptase using DNA/RNA hybrid as substrate incubated for 30 mins by fluorescence based analysis; set-up: species or system Human immunodeficiency virus 1
# [5] = test system: Human immunodeficiency virus 1; assay type: functional, organism-based, HEK293T
# [6] = test system: Human immunodeficiency virus 1; test: as §1, with “VSVG/HIV-1 harboring reverse transcriptase L100I/K103N double mutant” for “VSVG/wild-type HIV-1”; assay type: functional, organism-based; conditions: hek293t
# [7] = test system: Human immunodeficiency virus 1; assay type: functional, organism-based, HEK293T; remark: listed apart in the source
# [8] = test system: Human immunodeficiency virus 1; test: as §1, with “VSVG/HIV-1 harboring reverse transcriptase G190A/K103N double mutant” for “VSVG/wild-type HIV-1”; assay type: functional, organism-based, HEK293T
# [9] = test system: Human immunodeficiency virus 1; test: as §1, with “VSVG/HIV-1 harboring reverse transcriptase V108I/K103N double mutant” for “VSVG/wild-type HIV-1”; assay type: functional, organism-based, HEK293T
# [10] = test system: Human immunodeficiency virus 1; test: Antiviral activity against VSVG/HIV-1 harboring reverse transcriptase K103N mutant infected in human HEK 293T cells assessed as inhibition of virus replication preincubated with cells for 15 mins prior to viral infection and measured at 48 hrs post-infection by luciferase reporter gene assay; assay type: functional, organism-based, HEK293T; conditions: Human immunodeficiency virus 1, HEK-293T
# [11] = test system: Human immunodeficiency virus 1; assay type: functional, organism-based, HEK293T; conditions: Human immunodeficiency virus 1, HEK-293T
# [12] = test system: Human immunodeficiency virus 1; test: Antiviral activity against VSVG/wild-type HIV-1 infected in human HEK 293T cells assessed as time during which compound exhibits 50% virologic failure at 1 uM treated at post-viral infection and measured at 48 hrs post-infection by luciferase reporter gene assay; assay type: functional, HEK293T
# [13] = Human immunodeficiency virus 1, HEK-293T
SMILES,EC50 [1] [nM],CC50 [2] [nM],IC50 [3] [nM],IC50 [4] [nM],"EC50 [5, 13] [nM]",EC50 [6] [nM],EC50 ([7]; hek293t) [nM],"EC50 [8, 13] [nM]",EC50 ([9]; hek293t) [nM],EC50 [10] [nM],EC50 ([5]; hek293t) [nM],EC50 [11] [nM],"EC50 [7, 13] [nM]","EC50 [9, 13] [nM]",FT50 [12] [h],EC50 ([8]; hek293t) [nM]
CCCCOn1cc(CC(=O)Nc2ccncc2Cl)c2ccccc21,40,22100,80,> 100000,40,430,1420,700,560,,,,,,,
CCCOn1cc(CC(=O)Nc2ccccc2Cl)c2ccccc21,290,29500,270,> 100000,,8950,,> 10000,,> 10000,2130,> 10000,> 10000,> 10000,,
Cc1nnc(C(=O)NC(C)(C)c2nc(C(=O)NCc3ccc(F)cc3)c(O)c(=O)n2C)o1,,,,,,,,,,,,,,,12.2,
O=C1Nc2ccc(Cl)cc2[C@@](C#CC2CC2)(C(F)(F)F)O1 [EFAVIRENZ],,23700,,,2,1080,120,,,30,,50,,60,9.4,180
Cc1cn([C@H]2C[C@H](N=[N+]=[N-])[C@@H](CO)O2)c(=O)[nH]c1=O [ZIDOVUDINE],,,,,,,,,,,,,,,8.5,
